The values below come from the NIST ThermoML archive (doi:10.1021/acs.jced.8b00080).

A short description of this series: activity coefficient (dimensionless); of the first substance listed, at infinite dilution; xn = mol fraction of the nth substance listed. The settings on record: 101.33 kPa, Liquid, Chromatography, x1 = 0.

± gives the expanded uncertainty stated by the source.

For `Cc1ccc(C)cc1` [1,4-dimethylbenzene] + C[n+]1ccn(CCO)c1.O=S(=O)([O-])C(F)(F)C(F)(F)C(F)(F)C(F)(F)F, the activity coefficient (303 K) turned out to be 11.9 ± 0.43; the activity coefficient (313 K) turned out to be 11 ± 0.39; the activity coefficient (323 K) came out at 9.88 ± 0.35; the activity coefficient (333 K) is 8.78 ± 0.31; the activity coefficient (343 K) was found to be 8 ± 0.28; the activity coefficient (353 K) worked out at 7.59 ± 0.27.
Regarding `C1CCOC1` [tetrahydrofuran] + C[n+]1ccn(CCO)c1.O=S(=O)([O-])C(F)(F)C(F)(F)C(F)(F)C(F)(F)F, the activity coefficient by setting is: (303 K) 1.73 ± 0.1; (313 K) 1.7 ± 0.09; (323 K) 1.64 ± 0.09; (333 K) 1.59 ± 0.09; (343 K) 1.52 ± 0.09; (353 K) 1.48 ± 0.09.
`C#CCCC` [1-pentyne] + C[n+]1ccn(CCO)c1.O=S(=O)([O-])C(F)(F)C(F)(F)C(F)(F)C(F)(F)F: the activity coefficient is, setting by setting: (303 K) 5.99 ± 0.21; (313 K) 5.07 ± 0.18; (323 K) 4.21 ± 0.16; (333 K) 3.68 ± 0.14; (343 K) 3.11 ± 0.13; (353 K) 2.59 ± 0.12.
Take `CCCCCCCC` [octane] + C[n+]1ccn(CCO)c1.O=S(=O)([O-])C(F)(F)C(F)(F)C(F)(F)C(F)(F)F: the activity coefficient was determined as 99 ± 3.6 (303 K); 75.8 ± 2.8 (313 K); 61.2 ± 2.2 (323 K); 47.3 ± 1.7 (333 K); 37.1 ± 1.4 (343 K); 28.4 ± 1 (353 K).
Regarding `Cc1ccccc1` [toluene] + C[n+]1ccn(CCO)c1.O=S(=O)([O-])C(F)(F)C(F)(F)C(F)(F)C(F)(F)F, the activity coefficient came out at 7.4 ± 0.26 (303 K); 6.83 ± 0.24 (313 K); 6.21 ± 0.22 (323 K); 5.44 ± 0.19 (333 K); 4.94 ± 0.18 (343 K); 4.44 ± 0.16 (353 K).
Regarding `CCO` [ethanol] + C[n+]1ccn(CCO)c1.O=S(=O)([O-])C(F)(F)C(F)(F)C(F)(F)C(F)(F)F, the activity coefficient reads like this: (303 K) 1.56 ± 0.09; (313 K) 1.48 ± 0.09; (323 K) 1.38 ± 0.09; (333 K) 1.31 ± 0.09; (343 K) 1.22 ± 0.08; (353 K) 1.14 ± 0.08.
In the case of `CCc1ccccc1` [ethylbenzene] + C[n+]1ccn(CCO)c1.O=S(=O)([O-])C(F)(F)C(F)(F)C(F)(F)C(F)(F)F, the activity coefficient reads like this: (303 K) 12.1 ± 0.43; (313 K) 11 ± 0.39; (323 K) 10.1 ± 0.36; (333 K) 8.82 ± 0.31; (343 K) 7.93 ± 0.28; (353 K) 7.09 ± 0.25.
For `Cc1cccc(C)c1` [1,3-dimethylbenzene] + C[n+]1ccn(CCO)c1.O=S(=O)([O-])C(F)(F)C(F)(F)C(F)(F)C(F)(F)F, the activity coefficient runs as follows: (303 K) 11.6 ± 0.42; (313 K) 10.8 ± 0.39; (323 K) 9.86 ± 0.35; (333 K) 8.71 ± 0.31; (343 K) 7.91 ± 0.28; (353 K) 7.2 ± 0.26.
As to `CC1CCCCC1` [methylcyclohexane] + C[n+]1ccn(CCO)c1.O=S(=O)([O-])C(F)(F)C(F)(F)C(F)(F)C(F)(F)F, the activity coefficient by setting is: (303 K) 38.1 ± 1.4; (313 K) 29.7 ± 1.1; (323 K) 24.3 ± 0.88; (333 K) 19 ± 0.69; (343 K) 15.2 ± 0.55; (353 K) 12.3 ± 0.44.
Turning to `CCCCCC` [hexane] + C[n+]1ccn(CCO)c1.O=S(=O)([O-])C(F)(F)C(F)(F)C(F)(F)C(F)(F)F, the activity coefficient reads like this: (303 K) 23.5 ± 0.85; (313 K) 17.7 ± 0.64; (323 K) 13.7 ± 0.49; (333 K) 10.6 ± 0.38; (343 K) 8 ± 0.29; (353 K) 6.31 ± 0.23.
Take `Cc1ccccc1C` [1,2-dimethylbenzene] + C[n+]1ccn(CCO)c1.O=S(=O)([O-])C(F)(F)C(F)(F)C(F)(F)C(F)(F)F: the activity coefficient by setting is: (303 K) 10.4 ± 0.37; (313 K) 9.7 ± 0.35; (323 K) 8.9 ± 0.32; (333 K) 7.81 ± 0.28; (343 K) 7.04 ± 0.25; (353 K) 6.52 ± 0.23.
Take `C=CCCCC` [hex-1-ene] + C[n+]1ccn(CCO)c1.O=S(=O)([O-])C(F)(F)C(F)(F)C(F)(F)C(F)(F)F: the activity coefficient by setting is: (303 K) 15.7 ± 0.57; (313 K) 12.4 ± 0.45; (323 K) 9.71 ± 0.35; (333 K) 7.62 ± 0.27; (343 K) 6.07 ± 0.22; (353 K) 4.97 ± 0.18.
On to `CCCO` [propan-1-ol] + C[n+]1ccn(CCO)c1.O=S(=O)([O-])C(F)(F)C(F)(F)C(F)(F)C(F)(F)F, for which the activity coefficient (303 K) was 2.22 ± 0.11; the activity coefficient (313 K) amounted to 2.07 ± 0.1; the activity coefficient (323 K) was determined as 1.91 ± 0.1; the activity coefficient (333 K) was 1.81 ± 0.1; the activity coefficient (343 K) worked out at 1.66 ± 0.09; the activity coefficient (353 K) stood at 1.53 ± 0.09.
Consider `CC(C)=O` [acetone] + C[n+]1ccn(CCO)c1.O=S(=O)([O-])C(F)(F)C(F)(F)C(F)(F)C(F)(F)F, for which the activity coefficient turned out to be 0.93 ± 0.08 (303 K); 0.91 ± 0.08 (313 K); 0.9 ± 0.08 (323 K); 0.88 ± 0.08 (333 K); 0.85 ± 0.08 (343 K); 0.83 ± 0.08 (353 K).
Consider `C=CCCCCCC` [oct-1-ene] + C[n+]1ccn(CCO)c1.O=S(=O)([O-])C(F)(F)C(F)(F)C(F)(F)C(F)(F)F, for which the activity coefficient reads like this: (303 K) 53.9 ± 2; (313 K) 45.2 ± 1.6; (323 K) 36.6 ± 1.3; (333 K) 29.5 ± 1.1; (343 K) 24.3 ± 0.88; (353 K) 19.9 ± 0.72.
Consider `CCCCCCCCC` [nonane] + C[n+]1ccn(CCO)c1.O=S(=O)([O-])C(F)(F)C(F)(F)C(F)(F)C(F)(F)F, for which the activity coefficient (303 K) was determined as 157 ± 5.7; the activity coefficient (313 K) stood at 132 ± 4.8; the activity coefficient (323 K) amounted to 105 ± 3.8; the activity coefficient (333 K) is 88 ± 3.2; the activity coefficient (343 K) was determined as 71 ± 2.6; the activity coefficient (353 K) stood at 54.1 ± 2.
`ClCCl` [dichloromethane] + C[n+]1ccn(CCO)c1.O=S(=O)([O-])C(F)(F)C(F)(F)C(F)(F)C(F)(F)F: the activity coefficient came out at 2.14 ± 0.11 (303 K); 1.99 ± 0.1 (313 K); 1.85 ± 0.1 (323 K); 1.69 ± 0.09 (333 K); 1.54 ± 0.09 (343 K); 1.45 ± 0.09 (353 K).
Regarding `C#CCCCCC` [1-heptyne] + C[n+]1ccn(CCO)c1.O=S(=O)([O-])C(F)(F)C(F)(F)C(F)(F)C(F)(F)F, the activity coefficient was found to be 16.7 ± 0.6 (303 K); 15.1 ± 0.54 (313 K); 13.4 ± 0.48 (323 K); 11.9 ± 0.43 (333 K); 10.4 ± 0.37 (343 K); 9.29 ± 0.33 (353 K).
Turning to `C=CCCCCCCCC` [1-decene] + C[n+]1ccn(CCO)c1.O=S(=O)([O-])C(F)(F)C(F)(F)C(F)(F)C(F)(F)F, the activity coefficient reads like this: (303 K) 122 ± 4.5; (313 K) 107 ± 3.9; (323 K) 91.5 ± 3.3; (333 K) 79.6 ± 2.9; (343 K) 67.7 ± 2.5; (353 K) 59.2 ± 2.1.
As for `ClC(Cl)Cl` [trichloromethane] + C[n+]1ccn(CCO)c1.O=S(=O)([O-])C(F)(F)C(F)(F)C(F)(F)C(F)(F)F, the activity coefficient was determined as 2.27 ± 0.11 (303 K); 2.2 ± 0.11 (313 K); 2.11 ± 0.1 (323 K); 2.01 ± 0.1 (333 K); 1.91 ± 0.1 (343 K); 1.84 ± 0.1 (353 K).
As to `CO` [methanol] + C[n+]1ccn(CCO)c1.O=S(=O)([O-])C(F)(F)C(F)(F)C(F)(F)C(F)(F)F, the activity coefficient is, setting by setting: (303 K) 1.1 ± 0.08; (313 K) 1.02 ± 0.08; (323 K) 0.93 ± 0.08; (333 K) 0.9 ± 0.08; (343 K) 0.87 ± 0.08; (353 K) 0.82 ± 0.08.
Regarding `C1CCCCC1` [cyclohexane] + C[n+]1ccn(CCO)c1.O=S(=O)([O-])C(F)(F)C(F)(F)C(F)(F)C(F)(F)F, the activity coefficient was determined as 24.3 ± 0.88 (303 K); 19.1 ± 0.69 (313 K); 15.2 ± 0.55 (323 K); 11.7 ± 0.42 (333 K); 9.39 ± 0.34 (343 K); 7.54 ± 0.27 (353 K).
For the molecule `C#CCCCC` [1-hexyne] + C[n+]1ccn(CCO)c1.O=S(=O)([O-])C(F)(F)C(F)(F)C(F)(F)C(F)(F)F, the activity coefficient reads like this: (303 K) 10.4 ± 0.37; (313 K) 9.24 ± 0.33; (323 K) 7.92 ± 0.28; (333 K) 6.97 ± 0.25; (343 K) 6.03 ± 0.21; (353 K) 5.18 ± 0.19.
With `CC#N` [acetonitrile] + C[n+]1ccn(CCO)c1.O=S(=O)([O-])C(F)(F)C(F)(F)C(F)(F)C(F)(F)F, the activity coefficient (303 K) came to 0.99 ± 0.08; the activity coefficient (313 K) was determined as 0.97 ± 0.08; the activity coefficient (323 K) was determined as 0.93 ± 0.08; the activity coefficient (333 K) came to 0.9 ± 0.08; the activity coefficient (343 K) worked out at 0.87 ± 0.08; the activity coefficient (353 K) was 0.84 ± 0.08.
As for `C#CCCCCCC` [1-octyne] + C[n+]1ccn(CCO)c1.O=S(=O)([O-])C(F)(F)C(F)(F)C(F)(F)C(F)(F)F, the activity coefficient (303 K) worked out at 26.2 ± 0.94; the activity coefficient (313 K) amounted to 23.8 ± 0.85; the activity coefficient (323 K) is 21.2 ± 0.76; the activity coefficient (333 K) worked out at 19.1 ± 0.69; the activity coefficient (343 K) stood at 16.9 ± 0.61; the activity coefficient (353 K) came to 14.8 ± 0.53.
